{"source": "patent US20170216288A1", "about": "“IMMUNOPOTENTIATOR POTENTIATING TUMOR IMMUNITY OR INFECTION IMMUNITY” (priority 2014, published 2017)", "key": {"[1]": {"system": "effector Tregs in the peripheral blood", "assay": "Proportion of effector Tregs in peripheral blood of patients switched from Gleevec to nilotinib", "assay_type": "in vivo, human", "conditions": "three patients (Cases 1, 2 and 3), CMR state after switching to nilotinib"}, "BCR-ABL": {"system": "BCR-ABL", "conditions": "cited from earlier work"}, "[2]": {"system": "leukemic cells bearing Bcr-Abl gene", "assay": "Molecular response of chronic myelogenous leukemia patients switched to nilotinib", "conditions": "three patients in which CMR was not achieved by Gleevec"}, "Ki-67+ Treg cells": {"system": "Ki-67+ Treg cells", "assay": "Inhibitory action upon Treg cells in vivo, FACS of spleen cells of BALB/c mice", "conditions": "2 mg or 8 mg imatinib once a day for 1 week, orally or intraperitoneally", "method": "The expression of Foxp3 and CD25 in CD4^+ T cells and the expression of Ki-67 and CD44 in CD4^+Foxp3^+ T cells were analyzed by FACS."}, "effector Tregs [3]": {"system": "effector Tregs", "assay": "Effector Tregs after imatinib addition and antigen stimulation, healthy donor peripheral blood", "assay_type": "cell-based, human", "conditions": "imatinib 5 uM, 1 day, then antigen 10 uM, 10 days; healthy donors HD1-HD3"}, "[4]": {"system": "CD45RA-FoxP3high cells (fraction II: effector Tregs)", "assay": "Apoptosis of fractionated T cells cultured with imatinib (Annexin V and 7-AAD)", "assay_type": "cell-based, human", "conditions": "effector Tregs of a healthy donor, cultured 5 days at 37 C"}, "effector Tregs [5]": {"system": "effector Tregs", "assay": "Effector Tregs after imatinib addition and Melan-A stimulation, malignant melanoma patient peripheral blood", "assay_type": "cell-based, human", "conditions": "imatinib 5 uM, 1 day, then Melan-A 10 uM, 10 days; melanoma patients Pt1-Pt3", "description": "(§1) […]. Initially, Gleevec (Novartis Pharma K.K.; […]. Subsequently, cancer antigen (Melan-A) was added at a concentration of 10 μM to stimulate the cells, and the cells were cultured at 37° C. for 10 days. After the culture, the number of effector Tregs was measured as in Test Example 1 above. In addition, after the culture, analysis with the tetramer was performed as in Test Example 6 above to examine specific CD8^+ T cell induction."}, "[6]": {"system": "Melan A-specific CD8+ T cells", "assay": "Melan-A-specific CD8+ T cell induction, healthy donor peripheral blood (tetramer)", "assay_type": "cell-based, human", "conditions": "imatinib 5 uM, 1 day, then Melan-A 10 uM, 10 days; healthy donors"}, "[7]": {"system": "Tregs in the peripheral blood", "assay": "Proportion of Tregs in peripheral blood of chronic myelogenous leukemia patients treated with Gleevec (FACS, CD45RA/FoxP3)", "assay_type": "in vivo, human", "conditions": "peripheral blood after treatment", "description": "Specifically, peripheral blood mononuclear cells in the peripheral blood were harvested, CD4^+ cells were gated using anti-CD4 antibody labeled with BD Horizon V500, and the cells were stained with FITC-labeled anti-CD45RA antibody and PE-labeled anti-FoxP3 antibody. Subsequently, CD45RA and FoxP3 expression levels were measured by FACS analysis. For comparison, the proportion of Tregs in the peripheral blood of a healthy donor was similarly measured.\nIn FIG. 1, fraction I (CD45RA^+FoxP3^low) represents naive Tregs, fraction II (CD45RA^−FoxP3^high) represents effector Tregs, and fraction III (CD45RA^−FoxP3^low) represents non-suppressive Tregs."}, "[8]": {"system": "CD45RA-FoxP3high cells (fraction II: effector Tregs)", "assay": "Ki-67 expression in effector Tregs cultured in the presence of imatinib (FACS)", "assay_type": "cell-based, human", "conditions": "imatinib 10 uM, cultured 4 days"}, "[9]": {"system": "Melan-A-specific CD8+ T cells", "assay": "Specific CD8+ T cell induction, malignant melanoma patient peripheral blood (tetramer)", "assay_type": "cell-based, human", "conditions": "imatinib 5 uM, 1 day, then Melan-A 10 uM, 10 days; melanoma patients Pt1-Pt3", "description": "as §1"}, "[10]": {"system": "cytomegalovirus-specific CD8+ T cells", "assay": "Cytomegalovirus-specific CD8+ T cell induction, healthy donor peripheral blood (tetramer)", "assay_type": "cell-based, human", "conditions": "imatinib 5 uM, then cytomegalovirus antigen 10 uM, 10 days; healthy donor HD1"}, "[11]": {"system": "influenza virus-specific CD8+ T cells", "assay": "Influenza virus-specific CD8+ T cell induction, healthy donor peripheral blood (tetramer)", "assay_type": "cell-based, human", "conditions": "imatinib 5 uM, then influenza virus antigen peptide 10 uM", "description": "Specifically, analysis on specific CD8^+ T cell induction was performed as in Test Example 6 above, except that instead of cytomegalovirus antigen, an influenza virus antigen peptide was added at a concentration of 10 μM to stimulate the cells, and that influenza-specific tetramer was used."}, "Caspase 3/7": {"system": "Caspase 3/7", "assay": "Caspase 3/7 activation in T cell fractions cultured with imatinib under anti-CD3/anti-CD28 stimulation", "assay_type": "cell-based, human", "conditions": "imatinib 10 uM, 4 days, anti-CD3/anti-CD28 beads; effector Treg-specific", "description": "[…]; Novartis Pharma K.K.; […]. After the culture, the activation level of Caspase 3/7 in T cells of each fraction was measured using CellEvent Caspase 3/7 green and SYTOX AADvanced. […].\nIn FIG. 18, the vertical axis represents the proportion (%) of T cells having activated Caspase 3/7. […]"}}}
{"smiles": "Cc1cn(-c2cc(NC(=O)c3ccc(C)c(Nc4nccc(-c5cccnc5)n4)c3)cc(C(F)(F)F)c2)cn1", "note": "[nilotinib]", "values": [{"measurement": "proportion of effector Tregs in the peripheral blood", "setting": "[1]", "result": "a reduction in effector Tregs was not observed"}, {"measurement": "affinity for BCR-ABL relative to imatinib", "setting": "BCR-ABL", "result": "higher affinity for BCR-ABL than that of imatinib"}, {"measurement": "complete molecular response (CMR)", "setting": "[2]", "result": "CMR was achieved"}]}
{"smiles": "Cc1ccc(NC(=O)c2ccc(CN3CCN(C)CC3)cc2)cc1Nc1nccc(-c2cccnc2)n1", "note": "[imatinib]", "values": [{"measurement": "expression of Ki-67 and CD44 in CD4+Foxp3+ T cells of spleen", "setting": "Ki-67+ Treg cells", "result": "selectively inhibits Ki-67^+ Treg cells"}, {"measurement": "number of effector Tregs", "setting": "effector Tregs [3]", "result": "induces a reduction in effector Tregs"}, {"measurement": "proportion of apoptotic cells", "setting": "[4]", "result": "increases the proportion of apoptotic cells"}, {"measurement": "number of effector Tregs", "setting": "effector Tregs [5]", "result": "induces a reduction in effector Tregs"}, {"measurement": "Melan-A-specific CD8+ T cell induction", "setting": "[6]", "result": "potentiation of Melan-A-specific CD8^+ T cell induction"}, {"measurement": "naive Tregs (fraction I) in CD4+ cells", "setting": "[7]; CMR patients (49)", "result": "reduction in naive Tregs"}, {"measurement": "proportion of effector Tregs (fraction II) in CD4+ cells", "setting": "[7]; CMR patients (49)", "result": "significant reduction in the proportion of effector Tregs"}, {"measurement": "naive Tregs (fraction I) in CD4+ cells", "setting": "[7]; Non-CMR patients (38)", "result": "no reduction in naive Tregs"}, {"measurement": "proportion of effector Tregs (fraction II) in CD4+ cells", "setting": "[7]; Non-CMR patients (38)", "result": "no reduction in the proportion of effector Tregs"}, {"measurement": "expression level of Ki-67 in effector Tregs", "setting": "[8]", "result": "selectively reduced"}, {"measurement": "specific CD8+ T cell induction (immune responses against malignant melanoma)", "setting": "[9]", "result": "activation of immune responses against malignant melanoma"}, {"measurement": "cytomegalovirus-specific CD8+ T cell induction", "setting": "[10]", "result": "potentiated the induction of cytomegalovirus-specific CD8^+ T cells"}, {"measurement": "influenza virus-specific CD8+ T cell induction", "setting": "[11]", "result": "potentiates the induction of influenza virus-specific CD8^+ T cells"}, {"measurement": "proportion (%) of T cells having activated Caspase 3/7", "setting": "Caspase 3/7", "result": "activates Caspase 3/7"}]}
